This is an account of results in ChEMBL document CHEMBL3414439, “Design, synthesis and biological evaluation of piperic acid triazolyl derivatives as potent anti-inflammatory agents” (Eur J Med Chem, 2015).

The structures appear in SMILES notation. Activity calls are given as the source filed them. No cut-off for these calls is given here.

In data set [1] the test system is Rattus norvegicus. Description: Antiinflammatory activity in rat assessed as inhibition of carrageenan-induced paw volume at 20 mg/kg, po administered 1 hr prior to carrageenan challenge measured after 5 hrs relative to vehicle-treated control. The data set is classed as functional. (In the carrageenan paw model, swelling and tenderness develop within hours.)
Data set [2] concerns Rattus norvegicus. Nature of the data set: Antiinflammatory activity in rat assessed as inhibition of carrageenan-induced paw volume at 20 mg/kg, po administered 1 hr prior to carrageenan challenge measured after 5 hrs (reference value: 1.70 +/- 0.020 ml). The data set is classed as functional.
Data set [3] concerns Rattus norvegicus. Nature of the data set: Antiinflammatory activity in rat assessed as inhibition of carrageenan-induced paw volume at 20 mg/kg, po administered 1 hr prior to carrageenan challenge measured after 3 hrs (reference value: 1.68 +/- 0.029 ml). The data set is classed as functional.
Data set [4] deals with Rattus norvegicus. Nature of the data set: Antiinflammatory activity in rat assessed as inhibition of carrageenan-induced paw volume at 20 mg/kg, po administered 1 hr prior to carrageenan challenge measured after 3 hrs relative to vehicle-treated control. Format: functional.
Data set [5] concerns Mus musculus. Description: Analgesic activity in Swiss Albino acetic acid-induced writhing mouse model assessed as protection at 20 mg/kg, po administered 30 mins before to acetic acid challenge measured for 10 mins. Format: functional. (In general: An intraperitoneal irritant provokes the stretching counted in writhing tests.)
Data set [6] can be described thus: Inhibition of carrageenan-induced COX-2 expression in paw tissue (unknown origin) by immunohistochemistry. The data set is classed as functional.
The subject of a further data set is RAW264.7. Description: Antiinflammatory activity against mouse RAW264.7 cells assessed as inhibition of LPS-induced TNFalpha level at 20 uM after 24 hrs by ELISA relative to untreated control. Format: functional. The conditions noted are these: RAW264.7, 24 h.
The subject of data set [7] is Rattus norvegicus. Nature of the data set: Ulcerogenic effect in Albino Wistar rat assessed as damage in gastric mucosa at 60 mg, po after 5 hrs. The following applies: in vivo. Format: toxicity, organism-based.
A short description of data set [8]: Cytotoxicity against mouse RAW264.7 cells assessed as cell viability at 20 uM after 24 hrs by MTT assay. The data set is classed as cell-based. The conditions noted are these: read-out: Activity. On the technique in general: Tetrazolium dyes change colour on reduction, which living cells bring about.
Data set [9] in a line: Inhibition of carrageenan-induced TNFalpha expression in paw tissue (unknown origin) by immunohistochemistry. Format: functional.
For data set [10], the system named is Mus musculus. Description: Analgesic activity in Swiss Albino acetic acid-induced writhing mouse model assessed as number of writhes at 20 mg/kg, po administered 30 mins before to acetic acid challenge measured for 10 mins (reference value: 92.8 +/- 1.49). Format: functional.
Data set [11] is described as follows: Inhibition of carrageenan-induced NFkappaB expression in paw tissue (unknown origin) by immunohistochemistry. The data set is classed as functional.
Data set [12] is described as follows: Reduction in carrageenan-induced lipid peroxidation in gastric mucosa tissue (unknown origin) assessed as MDA after 30 mins. Format: functional, tissue-based.

As to `O=C(/C=C/C=C/c1ccc2c(c1)OCO2)OCc1cn(-c2ccc(F)cc2)nn1`, the results for the inhibition in vivo at 20 mg/kg in the data set with Rattus norvegicus [1] and in the data set with Rattus norvegicus [4] were 57% and 55.5%, respectively. For the same compound, the Activity in the data set with Rattus norvegicus [2] is 0.85 mL; in the data set with Rattus norvegicus [3] it was 0.87 mL.

As for `O=C(/C=C/C=C/c1ccc2c(c1)OCO2)OCc1cn(-c2cccc([N+](=O)[O-])c2)nn1`, the values for the inhibition in vivo at 20 mg/kg with Rattus norvegicus [1] and in the data set on Rattus norvegicus [4] were 15.4% and 15.6%, respectively. Further, the figures for the Activity in the data set with Rattus norvegicus [2] and with Rattus norvegicus [3] were 1.46 mL and 1.44 mL, respectively.

On to `Cc1ccccc1-n1cc(COC(=O)/C=C/C=C/c2ccc3c(c2)OCO3)nn1`, for which the results for the inhibition in vivo at 20 mg/kg in the data set on Rattus norvegicus [1] and in the data set with Rattus norvegicus [4] were 54.6% and 51.5%, respectively. In addition, the Activity amounted to 0.88 mL with Rattus norvegicus [2] and 0.91 mL with Rattus norvegicus [3].

In the case of `O=C(/C=C/C=C/c1ccc2c(c1)OCO2)OCc1cn(-c2ccccc2)nn1`, the inhibition in vivo at 20 mg/kg in the data set with Rattus norvegicus [1] worked out at 38.5%; in the data set on Rattus norvegicus [4], 37%. Also, the Activity is 1.11 mL in the data set on Rattus norvegicus [2] and 1.12 mL in the data set on Rattus norvegicus [3].

Regarding `CCc1ccc(-n2cc(COC(=O)/C=C/C=C/c3ccc4c(c3)OCO4)nn2)cc1`, the inhibition in vivo at 20 mg/kg was found to be 60% in the data set with Rattus norvegicus [1] and 57.5% in the data set on Rattus norvegicus [4]. Moreover, the Activity with Rattus norvegicus [2] worked out at 0.8 mL; in the data set on Rattus norvegicus [3] it was 0.83 mL.

As to `COc1ccc2c(c1)c(CC(=O)O)c(C)n2C(=O)c1ccc(Cl)cc1` [INDOMETHACIN], the Activity with Mus musculus [5] is 57.43%; in the data set on Rattus norvegicus [2], 0.54 mL; in the data set with Rattus norvegicus [7], “Toxic”; with Rattus norvegicus [3] it was 0.608 mL; in the data set on Mus musculus [10], 39.4. In addition, the values for the inhibition in vivo at 20 mg/kg in the data set with Rattus norvegicus [1] and in the data set on Rattus norvegicus [4] were 77% and 72%, respectively. In addition, the inhibition entry in data set [6], in data set [9] and in data set [11] was “Active” in each case. Moreover, the inhibition at 20 µM with RAW264.7 was 68%. Further, the viability at 24 h, 20 µM in data set [8] worked out at 55%.

Turning to `O=C(/C=C/C=C/c1ccc2c(c1)OCO2)OCc1cn(-c2ccccc2F)nn1`, the Activity worked out at 48.7% in the data set with Mus musculus [5], 0.65 mL with Rattus norvegicus [2], 0.68 mL in the data set with Rattus norvegicus [3] and 45.8 in the data set with Mus musculus [10]. Further, the values for the inhibition in vivo at 20 mg/kg in the data set with Rattus norvegicus [1] and in the data set on Rattus norvegicus [4] were 70.8% and 68.2%, respectively.

Turning to `O=C(/C=C/C=C/c1ccc2c(c1)OCO2)OCc1cn(-c2ccc([N+](=O)[O-])cc2)nn1`, the inhibition in vivo at 20 mg/kg amounted to 22.1% with Rattus norvegicus [1] and 19.6% in the data set with Rattus norvegicus [4]. For the same compound, the Activity amounted to 1.37 mL in the data set on Rattus norvegicus [2] and 1.39 mL in the data set on Rattus norvegicus [3].

For `O=C(/C=C/C=C/c1ccc2c(c1)OCO2)OCc1cn(-c2ccccc2Cl)nn1`, the Activity was 50.64% in the data set on Mus musculus [5]; 0.56 mL in the data set with Rattus norvegicus [2]; “Non-toxic” in the data set on Rattus norvegicus [7]; 0.58 mL in the data set with Rattus norvegicus [3]; 45.8 in the data set with Mus musculus [10]. For the same compound, the inhibition in vivo at 20 mg/kg with Rattus norvegicus [1] came out at 76.7%; with Rattus norvegicus [4], 74.5%. For the same compound, the inhibition result in data set [6], in data set [12], in [9] and in data set [11] was “Active” each time. Besides, the inhibition at 20 µM in the data set on RAW264.7 is 73.7%. Also, the viability at 24 h, 20 µM in data set [8] is 90%.

As for `O=C(/C=C/C=C/c1ccc2c(c1)OCO2)OCc1cn(-c2ccc(Cl)cc2Cl)nn1`, the Activity with Mus musculus [5] was 45.04%; in the data set on Rattus norvegicus [2], 0.622 mL; in the data set on Rattus norvegicus [7] it was “Non-toxic”; with Rattus norvegicus [3], 0.64 mL; with Mus musculus [10], 51. For the same compound, the inhibition in vivo at 20 mg/kg in the data set with Rattus norvegicus [1] came to 71.2%; in the data set with Rattus norvegicus [4] it was 69.3%. In addition, the inhibition at 20 µM with RAW264.7 came to 60.7%. Moreover, the inhibition result in data set [12] is “Active”. Besides, the viability at 24 h, 20 µM in [8] was found to be 90%.

For `O=C(/C=C/C=C/c1ccc2c(c1)OCO2)OCc1cn(-c2cccc(Cl)c2)nn1`, the values for the inhibition in vivo at 20 mg/kg in the data set with Rattus norvegicus [1] and in the data set on Rattus norvegicus [4] were 67.8% and 64.7%, respectively. In addition, the values for the Activity in the data set with Rattus norvegicus [2] and in the data set on Rattus norvegicus [3] were 0.69 mL and 0.71 mL, respectively.

As for `O=C(/C=C/C=C/c1ccc2c(c1)OCO2)N1CCCCC1` [PIPERINE], the values for the inhibition in vivo at 20 mg/kg in the data set on Rattus norvegicus [1] and in the data set on Rattus norvegicus [4] were 54.7% and 53.7%, respectively. Further, the inhibition at 20 µM in the data set with RAW264.7 is 49.7%. Moreover, the Activity is 0.67 mL with Rattus norvegicus [2], “Non-toxic” in the data set with Rattus norvegicus [7] and 0.676 mL with Rattus norvegicus [3].

On to `O=C(/C=C/C=C/c1ccc2c(c1)OCO2)OCc1cn(-c2ccc(Cl)cc2)nn1`, for which the inhibition in vivo at 20 mg/kg in the data set on Rattus norvegicus [1] is 59.7%; in the data set on Rattus norvegicus [4] it was 57.5%. Besides, the results for the Activity with Rattus norvegicus [2] and in the data set with Rattus norvegicus [3] were 0.81 mL and 0.83 mL, respectively.

As for `O=C(/C=C/C=C/c1ccc2c(c1)OCO2)OCc1cn(-c2ccc(Br)cc2)nn1`, the inhibition in vivo at 20 mg/kg with Rattus norvegicus [1] worked out at 55.5%; in the data set on Rattus norvegicus [4], 53.6%. Further, the Activity with Rattus norvegicus [2] was determined as 0.87 mL; in the data set with Rattus norvegicus [3], 0.89 mL.

In the case of `Cc1ccc(-n2cc(COC(=O)/C=C/C=C/c3ccc4c(c3)OCO4)nn2)cc1`, the inhibition in vivo at 20 mg/kg in the data set on Rattus norvegicus [1] was 49.1%; with Rattus norvegicus [4], 46.2%. For the same compound, the Activity in the data set on Rattus norvegicus [2] was found to be 0.98 mL; with Rattus norvegicus [3] it was 1.01 mL.

Consider `O=C(/C=C/C=C/c1ccc2c(c1)OCO2)OCc1cn(-c2ccccc2Br)nn1`, for which the Activity with Mus musculus [5] was 54.09%; in the data set with Rattus norvegicus [2] it was 0.51 mL; in the data set with Rattus norvegicus [7] it was “Non-toxic”; in the data set on Rattus norvegicus [3], 0.56 mL; in the data set on Mus musculus [10], 42.6. In addition, the inhibition in vivo at 20 mg/kg in the data set with Rattus norvegicus [1] was 80.4%; in the data set with Rattus norvegicus [4], 76.1%. Besides, the inhibition entry in data set [6], in [12], in data set [9] and in [11] was “Active” each time. Besides, in the data set with RAW264.7, the inhibition at 20 µM came out at 70.6%. Also, the viability at 24 h, 20 µM in data set [8] is 90%.

On to `COc1ccccc1-n1cc(COC(=O)/C=C/C=C/c2ccc3c(c2)OCO3)nn1`, for which the inhibition in vivo at 20 mg/kg in the data set on Rattus norvegicus [1] is 65%; in the data set with Rattus norvegicus [4], 61.6%. Further, the values for the Activity in the data set on Rattus norvegicus [2] and in the data set with Rattus norvegicus [3] were 0.72 mL and 0.76 mL, respectively.

As for `Cc1ccc(-n2cc(COC(=O)/C=C/C=C/c3ccc4c(c3)OCO4)nn2)cc1C`, the Activity with Mus musculus [5] was 44.93%; in the data set on Rattus norvegicus [2], 0.66 mL; in the data set on Rattus norvegicus [3], 0.68 mL; with Mus musculus [10] it was 51.2. The inhibition in vivo at 20 mg/kg in the data set on Rattus norvegicus [1] was 70.3%; with Rattus norvegicus [4], 67.9%.

Consider `COc1ccc(-n2cc(COC(=O)/C=C/C=C/c3ccc4c(c3)OCO4)nn2)cc1`, for which the inhibition in vivo at 20 mg/kg in the data set with Rattus norvegicus [1] turned out to be 55.9%; with Rattus norvegicus [4], 54%. Further, the values for the Activity in the data set on Rattus norvegicus [2] and in the data set with Rattus norvegicus [3] were 0.86 mL and 0.88 mL, respectively.

With `O=C(/C=C/C=C/c1ccc2c(c1)OCO2)OCc1cn(-c2ccc(Cl)c(Cl)c2)nn1`, the Activity in the data set with Mus musculus [5] is 50%; with Rattus norvegicus [2] it was 0.588 mL; in the data set on Rattus norvegicus [7], “Non-toxic”; in the data set with Rattus norvegicus [3], 0.632 mL; in the data set with Mus musculus [10], 46.4. Also, the inhibition in vivo at 20 mg/kg in the data set on Rattus norvegicus [1] was determined as 73%; in the data set on Rattus norvegicus [4], 69.6%. In the data set on RAW264.7, the inhibition at 20 µM is 63.6%. Moreover, the inhibition result in data set [12] is “Active”. Further, in data set [8], the viability at 24 h, 20 µM was found to be 90%.

On to `CCOc1ccc(-n2cc(COC(=O)/C=C/C=C/c3ccc4c(c3)OCO4)nn2)cc1`, for which the inhibition in vivo at 20 mg/kg in the data set with Rattus norvegicus [1] was 36.5%; with Rattus norvegicus [4], 32.9%. For the same compound, the Activity in the data set with Rattus norvegicus [2] came to 1.14 mL; with Rattus norvegicus [3], 1.1 mL.

A word on the inhibition in vivo: it is how much of the control response was suppressed. Usually inhibition stands for the percentage by which the read-out fell short of the control.
